Data as given in publication PMC2747815 (Journal of immunotherapy (Hagerstown, Md. : 1997), 2009).

Key:
[1] = test system: LN cells of TRP1-/-//DR4+ (KO) and TRP1+/-//DR4+ (WT) mice, antigen pulsed onto DR4+ 1088 EBV-B; assay: Ex vivo IFN-γ ELISPOT of LN cells from hTRP-1-immunized KO and WT mice; assay type: cell-based, mouse; conditions: for ex vivo ELISPOT reactivity, KO-derived compared with WT-derived CD4+ T cells: peptide 100 μM or protein 50 μg/ml pulsed onto 1088 EBV-B, 24 hours; for T cell frequency by ex vivo IFN-γ ELISPOT titration (mean): peptide 100 μM, Fig. 2D
[2] = target: HLA-DR4 (HLA-DRB1*0401) (Homo sapiens, UniProt P01903+P01911, A100K/A169T/F76Y/I96L/K127E/L162R/M171V/N62H/P40V/Q125Y/R42H/S133A/S149N/S66Y/V115G/V209L/W38E); conditions: competitive binding assay, purified class II, 48h in PBS with NP40; Fig. 1B
[3] = test system: LN cells of DR4 Tg mice, antigen pulsed onto DR4+ 1088 EBV-B; assay: IFN-γ ELISA of expanded LN T cells from mTRP-1-immunized DR4 Tg mice; assay type: cell-based, mouse; conditions: protein pulsed onto DR4+ 1088 EBV-B at 25 μg/ml; compared with mTRP-1 protein

Row | Molecule | ex vivo ELISPOT reactivity, KO-derived compared with WT-derived CD4+ T cells [1] | T cell frequency by ex vivo IFN-γ ELISPOT titration (mean) ([1]; TRP1+/-//DR4+ (WT) LN cells) | T cell frequency by ex vivo IFN-γ ELISPOT titration (mean) ([1]; TRP1-/-//DR4+ (KO) LN cells) | relative affinity (IC50), human variant compared with murine counterpart [2] | specific IFN-γ secretion by ELISA, protein [3]
1 | mTRP-1 protein: recombinant murine TRP-1 protein | significantly greater |  |  |  | 
2 | hTRP-1_277-297: HLA-DRB1*0401-restricted epitope from human TRP-1, positions 277-297 (ISPNSVFSQWRVVCDSLEDYD; UniProt P17643 277-297, looked up, fragment) |  | 158 | 163 | nearly three times less | 
3 | hTRP-1 protein: recombinant human TRP-1 protein | significantly greater |  |  |  | superior
4 | OVA: recombinant full-length OVA protein purchased from Sigma, control protein (protein, UniProt P01012 1-386, looked up, full-length) MGSIGAASMEFCFDVFKELKVHHANENIFYCPIAIMSALAMVYLGAKDSTRTQINKVVRFDKLPGFGDSIEAQCGTSVNVHSSLRDILNQITKPNDVYSFSLASRLYAEERYPILPEYLQCVKELYRGGLEPINFQTAADQARELINSWVESQTNGIIRNVLQPSSVDSQTAMVLVNAIVFKGLWEKAFKDEDTQAMPFRVTEQESKPVQMMYQIGLFRVASMASEKMKILELPFASGTMSMLVLLPDEVSGLEQLESIINFEKLTEWTSSNVMEERKIKVYLPRMKMEEKYNLTSVLMAMGITDVFSSSANLSGISSAESLKISQAVHAAHAEINEAGREVVGSAEAGVDAASVSEEFRADHPFLFCIKHIATNAVLFFGRCVSP |  |  |  |  | No significant immune response
